Reference: patent US20250195521A1 (Revolution Medicines, Inc., priority 2020, published 2025)

tested on: NCI-H358 (K-Ras G12C); assay: CellTiter-Glo cell viability assay, NCI-H358; assay type: cell-based, human; settings: 5-day treatment; read-out: H358 Cell Viability assay data (K-Ras G12C, IC50)
Experimental: Determination of Cell Viability in RAS Mutant Cancer Cell Lines Protocol: CellTiter-Glo® Cell Viability Assay
Note—The following protocol describes a procedure for monitoring cell viability of K-Ras mutant cancer cell lines in response to a compound of the invention. Other RAS isoforms may be employed, though the number of cells to be seeded will vary based on cell line used.
Test compounds (132.5 nL) were directly dispensed into the assay plates containing cells. […] On day 5, assay plates and their contents were equilibrated to room temperature for approximately 30 minutes. […] Luminescence was measured using the PerkinElmer Enspire. Data were normalized by the following: (Sample signal/Avg. DMSO)*100. The data were fit using a four-parameter logistic fit.

Compound	IC50 [µM]
C=CC(=O)N1CC[C@H](C(=O)N(C)[C@H](C(=O)N[C@H]2Cc3nc(cs3)-c3ccc4c(c3)c(c(-c3cc(C5=CCN(C)CC5)cnc3[C@H](C)OC)n4CC)CC(C)(C)COC(=O)[C@@H]3CCCN(N3)C2=O)C(C)C)C1 (atropisomer, axis not shown) [Compound A521]	0.1 to 1
C=CC(=O)N1CC[C@H](C(=O)N(C)[C@H](C(=O)N[C@H]2Cc3cc(O)cc(c3)-c3ccc4c(c3)c(c(-c3cccnc3)n4C(C)(C)C#N)CC(C)(C)COC(=O)[C@@H]3CCCN(N3)C2=O)C(C)C)C1 [Compound A74]	0.01 to 0.1
C=CC(=O)N1CC[C@H](C(=O)N(C)[C@H](C(=O)N[C@H]2Cc3cc(O)cc(c3)-c3ccc4c(c3)c(c(-c3cnccc3[C@H](C)OC)n4CC)CC(C)(C)COC(=O)[C@@H]3CCCN(N3)C2=O)C(C)C)C1 [Compound A112]	< 0.01
C=CC(=O)N1CC[C@H](C(=O)N(C)[C@H](C(=O)N[C@H]2Cc3cccc(c3)-c3ccc4c(c3)c(c(-c3cnccc3[C@H](C)OC)n4CC)CC(C)(C)COC(=O)[C@@H]3CCCN(N3)C2=O)C(C)C)C1 [Compound A122]	> 10

same assay, conditions: Homo sapiens, NCI-H358, 120 h, 5-day treatment; read-out: H358 Cell Viability assay data (K-Ras G12C, IC50)

Compound	IC50 [µM]
CCn1c(-c2cccnc2[C@H](C)OC)c2c3cc(ccc31)-c1csc(n1)C[C@H](NC(=O)[C@H](C(C)C)N(C)C(=O)N(C)C1CN(C(=O)/C=C/C(C)(C)O)C1)C(=O)N1CCC[C@H](N1)C(=O)OCC(C)(C)C2 (atropisomer, axis not shown) [Compound A350]	0.1 to 1
CCn1c(-c2cccnc2[C@H](C)OC)c2c3cc(ccc31)-c1cccc(c1)C[C@H](NC(=O)[C@H](C(C)C)N1CC[C@]3(CCN(C(=O)C#C[C@@]4(N(C)C)CCOC4)C3)C1=O)C(=O)N1CCC[C@H](N1)C(=O)OCC(C)(C)C2 (atropisomer, axis not shown) [Compound A560]	< 0.01
C=CC(=O)N1CC[C@H](C(=O)N(C)[C@H](C(=O)N[C@H]2Cc3cc(OC(=O)CN)cc(c3)-c3ccc4c(c3)c(c(-c3c(CCOC)cccc3OC)n4CC)CC(C)(C)COC(=O)[C@@H]3CCCN(N3)C2=O)C(C)C)C1 [Compound A8]	0.1 to 1
CCn1c(-c2cnccc2COC)c2c3cc(ccc31)-c1cc(O)cc(c1)C[C@H](NC(=O)[C@H](C(C)C)N(C)C(=O)[C@H]1CCN(C(=O)C3COC3)C1)C(=O)N1CCC[C@H](N1)C(=O)OCC(C)(C)C2 [Compound A9]	0.1 to 1
C=CC(=O)N1CC[C@H](C(=O)N(C)[C@H](C(=O)N[C@H]2Cc3cc(O)cc(c3)-c3ccc4c(c3)c(c(-c3ncccc3COC)n4CC)CC(C)(C)COC(=O)[C@@H]3CCCN(N3)C2=O)C(C)C)C1 [Compound A16]	0.01 to 0.1
CCn1c(-c2cnccc2COC)c2c3cc(ccc31)-c1cc(O)cc(c1)C[C@H](NC(=O)[C@H](C(C)C)N(C)C(=O)[C@H]1CCN(C=O)C1)C(=O)N1CCC[C@H](N1)C(=O)OCC(C)(C)C2 [Compound A17, (2S)—N-[(8S,14S)-22-ethyl-4-hydroxy-21-[4-(methoxymethyl)pyridin-3-yl]-18,18-dimethyl-9,15-dioxo-16-oxa-10,22,28-triazapentacyclo [18.5.2.1^2,6.1^10,14.0^23,27]nonacosa-1 (26), 2,4,6 (29),20,23 (27),24-heptaen-8-yl]-2-{1-[(3S)-1-formylpyrrolidin-3-yl]-N-methylformamido}-3-methylbutanamide]	0.1 to 1
CCn1c(-c2cnccc2COC)c2c3cc(ccc31)-c1cc(O)cc(c1)C[C@H](NC(=O)[C@H](C(C)C)N(C)C(=O)[C@H]1CCN(C(=O)C(C)C)C1)C(=O)N1CCC[C@H](N1)C(=O)OCC(C)(C)C2 [Compound A29]	0.1 to 1
C=CC(=O)N1CC[C@H](C(=O)N(C)[C@H](C(=O)N[C@H]2Cc3cc(O)cc(c3)-c3ccc4c(c3)c(c(-c3ccc(C5CCN(C)CC5)cc3)n4CC)CC(C)(C)COC(=O)[C@@H]3CCCN(N3)C2=O)C(C)C)C1 [Compound A39]	0.01 to 0.1
C=CC(=O)N1CC[C@H](C(=O)N(C)[C@H](C(=O)N[C@H]2Cc3cc(O)cc(c3)-c3ccc4c(c3)c(c(-c3ccc5c(c3)CCN(C)C5)n4CC)CC(C)(C)COC(=O)[C@@H]3CCCN(N3)C2=O)C(C)C)C1 [Compound A40]	0.01 to 0.1
CCn1c(-c2ccccc2CN(C)C)c2c3cc(ccc31)-c1cc(O)cc(c1)C[C@H](NC(=O)[C@H](C(C)C)N(C)C(=O)c1ccc(NC(=O)/C=C/CN(C)C)cn1)C(=O)N1CCC[C@H](N1)C(=O)OCC(C)(C)C2 [Compound A46]	> 10
CCn1c(-c2cnccc2COC)c2c3cc(ccc31)-c1cc(O)cc(c1)C[C@H](NC(=O)[C@@H](OC(=O)N(C)C)C(C)C)C(=O)N1CCC[C@H](N1)C(=O)OCC(C)(C)C2 [Compound A53]	0.1 to 1
C=CC(=O)N1CC[C@H](C(=O)N(C)[C@H](C(=O)N[C@H]2Cc3cc(O)cc(c3)-c3ccc4c(c3)c(c(-c3cncnc3)n4CC)CC(C)(C)COC(=O)[C@@H]3CCCN(N3)C2=O)C(C)C)C1 [Compound A61]	0.01 to 0.1
C=CC(=O)N1CC[C@@]2(CCCN([C@H](C(=O)N[C@H]3Cc4cc(O)cc(c4)-c4ccc5c(c4)c(c(-c4ccccc4CCOC)n5CC)CC(C)(C)COC(=O)[C@@H]4CCCN(N4)C3=O)C(C)C)C2=O)C1 [Compound A63]	0.1 to 1
CCn1c(-c2cccnc2COC)c2c3cc(ccc31)-c1cc(O)cc(c1)C[C@H](NC(=O)[C@H](C(C)C)N(C)C(=O)[C@H]1CCN(C(=O)/C=C/CN3CCN(C)CC3)C1)C(=O)N1CCC[C@H](N1)C(=O)OCC(C)(C)C2 [Compound A72]	> 10
C=CC(=O)N1CC[C@H](C(=O)N(C)[C@H](C(=O)N[C@H]2Cc3cc(O)cc(c3)-c3ccc4c(c3)c(c(-c3cnccc3[C@H](C)OC)n4CC)CC(C)(C)COC(=O)[C@@H]3CCCN(N3)C2=O)C(C)C)C1 [Compound A76]	< 0.01
CCn1c(-c2ccccc2COC)c2c3cc(ccc31)-c1cc(O)cc(c1)C[C@H](NC(=O)[C@H](C(C)C)N(C)C(=O)[C@H]1CCN(C(=O)/C=C/CN(C)C)C1)C(=O)N1CCC[C@H](N1)C(=O)OCC(C)(C)C2 [Compound A79]	0.01 to 0.1
CCn1c(-c2cnccc2COC)c2c3cc(ccc31)-c1cc(O)cc(c1)C[C@H](NC(=O)[C@H](C(C)C)N(C)C(=O)C1CCN(C)CC1)C(=O)N1CCC[C@H](N1)C(=O)OCC(C)(C)C2 [Compound A84]	0.1 to 1
CCn1c(-c2ccccc2CN(C)C)c2c3cc(ccc31)-c1cc(O)cc(c1)C[C@H](NC(=O)[C@H](C(C)C)N(C)C(=O)c1nc(NC(=O)/C=C/CN(C)C)cs1)C(=O)N1CCC[C@H](N1)C(=O)OCC(C)(C)C2 [Compound A90]	> 10
CCn1c(-c2cccnc2[C@H](C)OC)c2c3cc(ccc31)-c1cccc(c1)C[C@H](NC(=O)[C@H](C(C)C)N(C)C(=O)[C@H]1CCN(C(=O)CN(C)C)C1)C(=O)N1CCC[C@H](N1)C(=O)OCC(C)(C)C2 [Compound A96]	< 0.01
C=CC(=O)N1CC[C@H](C(=O)N(C)[C@H](C(=O)N[C@H]2Cc3cc(O)cc(c3)-c3cc4c(c(-c5ccccc5CCOC)n(CC)c4cn3)CC(C)(C)COC(=O)[C@@H]3CCCN(N3)C2=O)C(C)C)C1 [Compound A102]	> 10
C=CC(=O)N1CCN(C(=O)N(C)[C@H](C(=O)N[C@H]2Cc3cc(O)cc(c3)-c3ccc4c(c3)c(c(-c3ccccc3CCOC)n4CC)CC(C)(C)COC(=O)[C@@H]3CCCN(N3)C2=O)C(C)C)C[C@@H]1COC [Compound A125]	> 10
CCn1c(-c2ccccc2CN(C)C)c2c3cc(ccc31)-c1cc(O)cc(c1)C[C@H](NC(=O)[C@@H](C(C)C)N(C)C(=O)c1ncc(NC(=O)/C=C/CN(C)C)n1C)C(=O)N1CCC[C@H](N1)C(=O)OCC(C)(C)C2 [Compound A126]	> 10
CCn1c(-c2cnccc2[C@H](C)OC)c2c3cc(ccc31)-c1cccc(c1)C[C@H](NC(=O)[C@H](C1CCCC1)N(C)C(=O)[C@H]1CCN(C(=O)C#CCN(C)C)C1)C(=O)N1CCC[C@H](N1)C(=O)OCC(C)(C)C2 [Compound A133]	< 0.01
C=CC(=O)N1CC[C@H](C(=O)N(C)[C@H](C(=O)N[C@H]2Cc3cc(ccn3)-c3ccc4c(c3)c(c(-c3cccnc3COC)n4CC)CC(C)(C)COC(=O)[C@@H]3CCCN(N3)C2=O)C(C)C)C1 [Compound A136]	> 10
C=CC(=O)N1CC[C@H](C(=O)N(C)[C@H](C(=O)N[C@H]2Cc3cc(O)cc(c3)-c3ccc4c(c3)c(c(-c3cc(CN(C)C)cnc3COC)n4CC)CC(C)(C)COC(=O)[C@@H]3CCCN(N3)C2=O)C(C)C)C1 [Compound A149]	0.01 to 0.1
C=CC(=O)N1CC[C@H](C(=O)N(C)[C@H](C(=O)N[C@H]2Cc3cc(O)cc(c3)-c3ccc4c(c3)c(c(-c3cccnc3)n4C3CC3)CC(C)(C)COC(=O)[C@@H]3CCCN(N3)C2=O)C(C)C)C1 [Compound A160]	0.1 to 1
C=CC(=O)N1CC(NC[C@H](C(=O)N[C@H]2Cc3cc(O)cc(c3)-c3ccc4c(c3)c(c(-c3cccnc3COC)n4CC)CC(C)(C)COC(=O)[C@@H]3CCCN(N3)C2=O)C(C)C)C1 [Compound A174]	> 10
C/C=C(\C#N)C(=O)N1CC[C@H](C(=O)N(C)[C@H](C(=O)N[C@H]2Cc3cc(O)cc(c3)-c3ccc4c(c3)c(c(-c3cccnc3COC)n4CC)CC(C)(C)COC(=O)[C@@H]3CCCN(N3)C2=O)C(C)C)C1 [Compound A178]	> 10

same assay, conditions: Homo sapiens, NCI-H358, 120 h, read-out: H358 Cell Viability assay data (K-Ras G12C, IC50, uM), 5-day treatment

Compound	IC50 [µM]
C=CC(=O)N1CC[C@H](C(=O)N(C)[C@H](C(=O)N[C@H]2Cc3cc(O)cc(c3)-c3ccc4c(c3)c(c(-c3ccc(CN(C)C)nc3)n4CC)CC(C)(C)COC(=O)[C@@H]3CCCN(N3)C2=O)C(C)C)C1 [Compound A3]	0.1 to 1
C=CC(=O)N1CC[C@H](C(=O)N(C)[C@H](C(=O)N[C@H]2Cc3cc(O)cc(c3)-c3ccc4c(c3)c(c(-c3cc(C)cnc3[C@H](C)OC)n4CC)CC(C)(C)COC(=O)[C@@H]3CCCN(N3)C2=O)C(C)C)C1 [Compound A167]	< 0.01
